Several values for one entry are separate records, joined by “and”; a condition that tells them apart may be missing. Equal entries are not always repeated. Toxic doses and inconclusive results are not listed. The calls were made as follows: active = survival T/C of 150% or more; inactive = T/C below 125% in these data. Peptide text beside a SMILES is read from it. * marks the point of attachment. Cbz = O=C(OCc1ccccc1)*; Bn = c1ccc(C*)cc1
Tested on: P388 leukemia ip, CD2F1 mice, survival T/C
Assay: NCI In Vivo Anticancer Drug Screen. Data for tumor model P388 Leukemia (intraperitoneal) in CD2F1 (CDF1) mice
Details: endpoint: median survival time, higher = longer survival
How it was run: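 Mice carrying the transplanted tumor received test compound or vehicle. Survival was recorded in each group, and the value is the treated-group measurement divided by that of the vehicle-treated control group.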

[1] = dose: 100.0 mg/kg/injection, schedule: Q01DX009 (ip), vehicle: Klucel (hydroxypropylcellulose) (HPC)
[2] = dose: 200.0 mg/kg/injection, schedule: Q01DX009 (ip), vehicle: Klucel (hydroxypropylcellulose) (HPC)
[3] = dose: 50.0 mg/kg/injection, schedule: Q01DX009 (ip), vehicle: Klucel (hydroxypropylcellulose) (HPC)
[4] = dose: 50.0 mg/kg/injection, schedule: Q01DX005 (ip), vehicle: saline with Tween-80
[5] = dose: 100.0 mg/kg/injection, schedule: Q01DX005 (ip), vehicle: saline with Tween-80
[6] = dose: 200.0 mg/kg/injection, schedule: Q01DX005 (ip), vehicle: saline with Tween-80
[7] = dose: 60.0 mg/kg/injection, schedule: Q01DX005 (ip), vehicle: saline with Tween-80
[8] = dose: 120.0 mg/kg/injection, schedule: Q01DX005 (ip), vehicle: saline with Tween-80
[9] = dose: 240.0 mg/kg/injection, schedule: Q01DX005 (ip), vehicle: saline with Tween-80
[10] = dose: 100.0 mg/kg/injection, schedule: Q01DX009 (ip), vehicle: saline
[11] = dose: 200.0 mg/kg/injection, schedule: Q01DX009 (ip), vehicle: saline
[12] = dose: 50.0 mg/kg/injection, schedule: Q01DX005 (ip), vehicle: Klucel (hydroxypropylcellulose) (HPC)
[13] = dose: 100.0 mg/kg/injection, schedule: Q01DX005 (ip), vehicle: Klucel (hydroxypropylcellulose) (HPC)
[14] = dose: 200.0 mg/kg/injection, schedule: Q01DX005 (ip), vehicle: Klucel (hydroxypropylcellulose) (HPC)
[15] = dose: 6.25 mg/kg/injection, schedule: Q01DX009 (ip), vehicle: Klucel (hydroxypropylcellulose) (HPC)
[16] = dose: 12.5 mg/kg/injection, schedule: Q01DX009 (ip), vehicle: Klucel (hydroxypropylcellulose) (HPC)
[17] = dose: 12.5 mg/kg/injection, schedule: Q01DX005 (ip), vehicle: Klucel (hydroxypropylcellulose) (HPC)
[18] = dose: 60.0 mg/kg/injection, schedule: Q01DX005 (ip), vehicle: Klucel (hydroxypropylcellulose) (HPC)
[19] = dose: 120.0 mg/kg/injection, schedule: Q01DX005 (ip), vehicle: Klucel (hydroxypropylcellulose) (HPC)
[20] = dose: 240.0 mg/kg/injection, schedule: Q01DX005 (ip), vehicle: Klucel (hydroxypropylcellulose) (HPC)
[21] = dose: 25.0 mg/kg/injection, schedule: Q01DX005 (ip), vehicle: Klucel (hydroxypropylcellulose) (HPC)

Measured: T/C

Cn1c(=O)n(-c2ccccc2)c(=O)c2ccccc21
inactive: [1] 100 % of control | [2] 110 % of control | dose: 400.0 mg/kg/injection, schedule: Q01DX009 (ip), vehicle: Klucel (hydroxypropylcellulose) (HPC) 109 % of control

CCCCC(CCCCCC(CCCC)C1NCCc2cc(OC)c(OC)cc21)C1NCCc2cc(OC)c(OC)cc21 (stereo not drawn)
inactive: dose: 6.25 mg/kg/injection, schedule: Q01DX005 (ip), vehicle: saline with Tween-80 91 % of control | dose: 12.5 mg/kg/injection, schedule: Q01DX005 (ip), vehicle: saline with Tween-80 93 % of control | dose: 25.0 mg/kg/injection, schedule: Q01DX005 (ip), vehicle: saline with Tween-80 93 % of control

COCCC1CN(C(C)C)C(=O)C1(c1ccccc1)c1ccccc1 (stereo not drawn)
inactive: [3] 106 % of control | [1] 92 % of control | [2] 108 % of control

CCC(=O)OC1C2(O)C(OC(=O)C(C)C)C3(C)CC24OC2(C)OC15C1CC(=O)OC(c6ccoc6)C1(C)CCC5(O2)C4(C)C3CC(=O)OC (stereo not drawn)
inactive: dose: 0.37 mg/kg/injection, schedule: Q01DX009 (ip), vehicle: Klucel (hydroxypropylcellulose) (HPC) 108 % of control | dose: 0.75 mg/kg/injection, schedule: Q01DX009 (ip), vehicle: Klucel (hydroxypropylcellulose) (HPC) 101 % of control | dose: 1.5 mg/kg/injection, schedule: Q01DX009 (ip), vehicle: Klucel (hydroxypropylcellulose) (HPC) 102 % of control | dose: 3.0 mg/kg/injection, schedule: Q01DX009 (ip), vehicle: Klucel (hydroxypropylcellulose) (HPC) 96 % of control

C/C(=C\CCCC(/C=C/C=C/CCCCOCc1ccccc1)O[Si](C)(C)C(C)(C)C)CO (stereo not drawn)
inactive: [4] 102 % of control | [5] 101 % of control | [6] 99 % of control

Cc1ccc2c(c1)S(=O)(=O)NC2=O
inactive: [7] 95 % of control | [8] 92 % of control | [9] 95 % of control

COC(=O)c1cc(C2OC3OC(C)(C)OC3C2OC)nn1-c1ccc([N+](=O)[O-])cc1 (stereo not drawn)
inactive: [4] 109 % of control | [5] 100 % of control | [6] 104 % of control

N#CC1CSCC1=O (stereo not drawn)
inactive: dose: 25.0 mg/kg/injection, schedule: Q01DX009 (ip), vehicle: saline with Tween-80 103 % of control | dose: 50.0 mg/kg/injection, schedule: Q01DX009 (ip), vehicle: saline with Tween-80 100 % of control | dose: 100.0 mg/kg/injection, schedule: Q01DX009 (ip), vehicle: saline with Tween-80 99 % of control

O=C(O)c1cccc(O)c1O
inactive: [10] 101 % of control and 104 % of control | [11] 89 % of control and 96 % of control | dose: 600.0 mg/kg/injection, schedule: Q01DX009 (ip), vehicle: saline 101 % of control and 89 % of control

Clc1ccc(N=NN2CCc3ccccc3C2)cc1
inactive: [3] 99 % of control | [1] 99 % of control | [2] 93 % of control

N=C(N)SCCC(=O)NCNC(=O)CCSC(=N)N
inactive: dose: 50.0 mg/kg/injection, schedule: Q01DX005 (ip), vehicle: suspension in saline 98 % of control | dose: 100.0 mg/kg/injection, schedule: Q01DX005 (ip), vehicle: suspension in saline 99 % of control

OCC1OC(O)C(N=Cc2ccccc2O)C(O)C1O (stereo not drawn)
inactive: [12] 104 % of control | [13] 104 % of control | [14] 106 % of control

CC[n+]1c2ccc(C)cc2nc2c3ccccc3c(N)cc21
inactive: dose: 5.0 mg/kg/injection, schedule: Q01DX009 (ip), vehicle: saline 110 % of control | dose: 10.0 mg/kg/injection, schedule: Q01DX009 (ip), vehicle: saline 106 % of control | dose: 20.0 mg/kg/injection, schedule: Q01DX009 (ip), vehicle: saline 99 % of control

O=[N+]([O-])c1cccc(OCCOc2ccccc2)c1
inactive: dose: 100.0 mg/kg/injection, schedule: Q01DX009 (ip), vehicle: other 110 % of control | dose: 200.0 mg/kg/injection, schedule: Q01DX009 (ip), vehicle: other 105 % of control

CCCCCCCCN1CSC(=S)N(c2ccc3[nH]c(=S)sc3c2)C1
inactive: [15] 94 % of control | [16] 106 % of control | dose: 25.0 mg/kg/injection, schedule: Q01DX009 (ip), vehicle: Klucel (hydroxypropylcellulose) (HPC) 94 % of control

COc1cc(NCCCCCCNC(C)C)c2ncccc2c1OC
inactive: dose: 1.56 mg/kg/injection, schedule: Q01DX005 (ip), vehicle: Klucel (hydroxypropylcellulose) (HPC) 99 % of control | dose: 3.12 mg/kg/injection, schedule: Q01DX005 (ip), vehicle: Klucel (hydroxypropylcellulose) (HPC) 105 % of control | dose: 6.25 mg/kg/injection, schedule: Q01DX005 (ip), vehicle: Klucel (hydroxypropylcellulose) (HPC) 105 % of control | [17] 105 % of control

CO[C@@]1([C@@H](Cl)c2ccccc2)C(=O)N(C)/C(=C\c2ccccc2)C(=O)N1C
inactive: [18] 105 % of control | [19] 92 % of control | [20] 97 % of control

CON1C(=O)C(c2ccccc2)c2ccccc21 (stereo not drawn)
inactive: [7] 106 % of control | [8] 96 % of control | [9] 96 % of control

NC(=O)C1C2C=CC(C2)C1C(N)=O (stereo not drawn)
inactive: [18] 97 % of control | [19] 103 % of control | [20] 97 % of control

N#CN=[N+]([O-])c1cccc(Cl)c1
inactive: dose: 3.12 mg/kg/injection, schedule: Q01DX009 (ip), vehicle: Klucel (hydroxypropylcellulose) (HPC) 101 % of control | [15] 108 % of control | dose: 6.25 mg/kg/injection, schedule: Q04DX003 (ip), vehicle: Klucel (hydroxypropylcellulose) (HPC) 101 % of control | [16] 98 % of control | dose: 12.5 mg/kg/injection, schedule: Q04DX003 (ip), vehicle: Klucel (hydroxypropylcellulose) (HPC) 104 % of control | dose: 25.0 mg/kg/injection, schedule: Q04DX003 (ip), vehicle: Klucel (hydroxypropylcellulose) (HPC) 91 % of control

OCC[Se][Se]CCO
inactive: dose: 1.25 mg/kg/injection, schedule: Q01DX009 (ip), vehicle: Klucel (hydroxypropylcellulose) (HPC) 103 % of control | dose: 2.5 mg/kg/injection, schedule: Q01DX009 (ip), vehicle: Klucel (hydroxypropylcellulose) (HPC) 100 % of control | dose: 5.0 mg/kg/injection, schedule: Q01DX009 (ip), vehicle: Klucel (hydroxypropylcellulose) (HPC) 103 % of control

O=c1[nH]c2c([N+](=O)[O-])cc(Cl)cc2nc1/C=C(\O)c1ccc2ccccc2c1
inactive: [7] 98 % of control | [8] 90 % of control | [9] 99 % of control

NC(=O)C(Cc1ccccc1)NC(=O)C(CSCc1ccccc1)NC(=O)OCc1ccccc1 (stereo not drawn) (Cbz-Cys(Bn)-Phe-NH2; configuration not given here)
inactive: [17] 103 % of control | [21] 102 % of control | [12] 86 % of control and 91 % of control

O=C(O)CNCC(=O)O
inactive: dose: 12.5 mg/kg/injection, schedule: Q01DX009 (ip), vehicle: saline 94 % of control | dose: 25.0 mg/kg/injection, schedule: Q01DX009 (ip), vehicle: saline 99 % of control | dose: 50.0 mg/kg/injection, schedule: Q01DX009 (ip), vehicle: saline 93 % of control | [10] 100 % of control and 98 % of control | [11] 100 % of control | dose: 400.0 mg/kg/injection, schedule: Q01DX009 (ip), vehicle: saline 90 % of control

Cn1c(-c2ccccc2)cc2cc(CN)ccc21
inactive: [3] 100 % of control | [1] 100 % of control

CC1CCC2CCCCN2CO1 (stereo not drawn)
inactive: [21] 105 % of control | [12] 101 % of control and 122 % of control and 96 % of control | [13] 101 % of control and 109 % of control and 112 % of control | [14] 104 % of control and 114 % of control and 118 % of control

COC(=O)[C@H]1C[C@@H](N)[C@H](O)[C@@H]1O
inactive: dose: 60.0 mg/kg/injection, schedule: Q01DX005 (ip), vehicle: saline 102 % of control | dose: 120.0 mg/kg/injection, schedule: Q01DX005 (ip), vehicle: saline 101 % of control | dose: 240.0 mg/kg/injection, schedule: Q01DX005 (ip), vehicle: saline 100 % of control

O=C1CC(c2ccccc2)C(=O)N1CN1CC=CCC1 (stereo not drawn)
inactive: dose: 100.0 mg/kg/injection, schedule: Q01DX001 (ip), vehicle: Klucel (hydroxypropylcellulose) (HPC) 124 % of control

From PubChem BioAssay AID330 (DTP/NCI, 2004)
